Source: patent US4994476A, “Dihydropyridin-3,5-dicarboxylates incorporating aryloxypropanolamine moieties” (Bristol-Myers Company, priority 1985, dated 1991)
Structures can show the parent of a compound that is named as a salt. Where two headings read alike, the source gives them in different places.

Key:
rat dorsal aorta = biological target: T1, rat dorsal aorta (Rattus norvegicus, UniProt P22002); experiment: Calcium blockade in rat dorsal aorta (calcium activity in smooth muscle); format: cell-based; conditions: for Calcium (pA2): negative logarithm of molar concentration giving dose ratio of 2; for Kb: negative logarithm of molar concentration giving dose ratio of 2, read-out: Calcium (pA2) (converted)
T1 construct: from tissue; host or cells: rat dorsal aorta (smooth muscle)
T1 sequence (P22002 whole entry): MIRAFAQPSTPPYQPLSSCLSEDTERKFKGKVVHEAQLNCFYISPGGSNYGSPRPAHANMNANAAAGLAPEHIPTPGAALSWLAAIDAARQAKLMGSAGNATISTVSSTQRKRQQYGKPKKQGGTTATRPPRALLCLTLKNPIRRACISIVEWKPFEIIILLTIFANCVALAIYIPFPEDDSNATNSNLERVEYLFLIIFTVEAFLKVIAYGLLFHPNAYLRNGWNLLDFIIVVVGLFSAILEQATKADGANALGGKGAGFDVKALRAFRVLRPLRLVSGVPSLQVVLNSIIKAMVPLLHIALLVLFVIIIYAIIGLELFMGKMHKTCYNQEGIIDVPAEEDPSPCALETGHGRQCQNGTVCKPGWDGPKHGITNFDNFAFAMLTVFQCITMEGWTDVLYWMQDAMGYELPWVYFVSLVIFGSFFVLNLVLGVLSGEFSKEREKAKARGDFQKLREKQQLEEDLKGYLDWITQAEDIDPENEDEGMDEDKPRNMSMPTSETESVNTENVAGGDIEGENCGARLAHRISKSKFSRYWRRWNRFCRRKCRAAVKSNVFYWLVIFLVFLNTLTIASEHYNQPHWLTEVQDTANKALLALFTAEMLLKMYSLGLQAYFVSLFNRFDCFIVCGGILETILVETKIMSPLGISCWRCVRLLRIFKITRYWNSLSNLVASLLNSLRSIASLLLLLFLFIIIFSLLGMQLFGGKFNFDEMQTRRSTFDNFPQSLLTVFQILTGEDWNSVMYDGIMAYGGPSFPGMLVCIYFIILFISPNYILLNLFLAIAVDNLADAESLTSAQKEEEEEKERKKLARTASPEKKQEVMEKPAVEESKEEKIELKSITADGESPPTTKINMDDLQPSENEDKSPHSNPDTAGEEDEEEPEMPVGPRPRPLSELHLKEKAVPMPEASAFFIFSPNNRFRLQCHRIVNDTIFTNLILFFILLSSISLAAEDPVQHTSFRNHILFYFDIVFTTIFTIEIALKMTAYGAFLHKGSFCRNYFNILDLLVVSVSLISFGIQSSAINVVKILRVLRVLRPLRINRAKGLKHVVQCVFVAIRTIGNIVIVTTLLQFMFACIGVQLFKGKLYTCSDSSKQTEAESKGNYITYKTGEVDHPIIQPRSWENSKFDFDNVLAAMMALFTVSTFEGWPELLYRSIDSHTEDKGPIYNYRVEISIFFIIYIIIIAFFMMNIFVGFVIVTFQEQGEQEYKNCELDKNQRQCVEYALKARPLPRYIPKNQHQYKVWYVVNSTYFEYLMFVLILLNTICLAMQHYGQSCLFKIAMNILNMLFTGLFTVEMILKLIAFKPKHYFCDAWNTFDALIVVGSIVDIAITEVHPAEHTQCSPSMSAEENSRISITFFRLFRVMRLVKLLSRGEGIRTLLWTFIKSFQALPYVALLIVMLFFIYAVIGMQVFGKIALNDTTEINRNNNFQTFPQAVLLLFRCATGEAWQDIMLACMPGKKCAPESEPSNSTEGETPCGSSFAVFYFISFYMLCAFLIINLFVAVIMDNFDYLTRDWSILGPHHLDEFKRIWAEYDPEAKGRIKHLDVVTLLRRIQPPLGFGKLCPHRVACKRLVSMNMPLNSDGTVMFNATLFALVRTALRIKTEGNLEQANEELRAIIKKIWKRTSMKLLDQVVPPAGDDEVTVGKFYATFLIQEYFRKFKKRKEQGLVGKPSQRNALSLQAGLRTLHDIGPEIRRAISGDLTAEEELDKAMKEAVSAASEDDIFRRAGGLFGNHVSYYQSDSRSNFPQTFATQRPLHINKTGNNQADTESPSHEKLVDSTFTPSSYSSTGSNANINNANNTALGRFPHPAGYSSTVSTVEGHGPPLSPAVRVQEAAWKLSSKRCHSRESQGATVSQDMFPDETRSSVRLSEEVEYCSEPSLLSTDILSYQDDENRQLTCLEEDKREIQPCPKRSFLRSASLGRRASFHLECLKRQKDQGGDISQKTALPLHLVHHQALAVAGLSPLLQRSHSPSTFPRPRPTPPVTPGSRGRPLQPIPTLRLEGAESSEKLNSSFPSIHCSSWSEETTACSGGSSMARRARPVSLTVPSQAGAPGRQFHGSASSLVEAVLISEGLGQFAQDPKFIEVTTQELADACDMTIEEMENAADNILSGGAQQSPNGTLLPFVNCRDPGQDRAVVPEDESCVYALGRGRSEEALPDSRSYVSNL
T1 sequence (P54290 25-944 partner limits assumed): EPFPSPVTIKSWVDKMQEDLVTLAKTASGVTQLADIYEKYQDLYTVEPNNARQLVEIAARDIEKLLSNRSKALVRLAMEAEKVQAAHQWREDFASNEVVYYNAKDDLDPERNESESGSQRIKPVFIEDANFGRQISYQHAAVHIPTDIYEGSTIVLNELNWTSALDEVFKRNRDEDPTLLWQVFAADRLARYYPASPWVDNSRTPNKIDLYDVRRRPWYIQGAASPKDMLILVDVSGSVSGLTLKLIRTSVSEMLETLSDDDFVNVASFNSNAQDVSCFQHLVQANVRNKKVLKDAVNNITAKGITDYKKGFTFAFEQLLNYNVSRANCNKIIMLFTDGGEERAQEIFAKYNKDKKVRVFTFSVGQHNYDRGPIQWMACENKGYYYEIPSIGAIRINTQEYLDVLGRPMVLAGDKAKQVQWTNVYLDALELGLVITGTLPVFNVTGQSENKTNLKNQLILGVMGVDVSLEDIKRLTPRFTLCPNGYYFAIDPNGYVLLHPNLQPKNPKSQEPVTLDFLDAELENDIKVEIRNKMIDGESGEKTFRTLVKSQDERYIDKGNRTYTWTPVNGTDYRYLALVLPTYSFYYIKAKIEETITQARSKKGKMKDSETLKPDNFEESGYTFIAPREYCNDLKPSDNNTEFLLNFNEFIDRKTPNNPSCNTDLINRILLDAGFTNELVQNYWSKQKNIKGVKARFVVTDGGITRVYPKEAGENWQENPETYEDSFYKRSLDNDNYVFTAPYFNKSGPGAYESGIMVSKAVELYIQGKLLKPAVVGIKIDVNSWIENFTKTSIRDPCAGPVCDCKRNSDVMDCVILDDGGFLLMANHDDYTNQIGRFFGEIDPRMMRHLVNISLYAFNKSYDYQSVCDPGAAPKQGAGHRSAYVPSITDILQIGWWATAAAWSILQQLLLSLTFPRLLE
T1 sequence (P54290 945-1091 partner limits assumed): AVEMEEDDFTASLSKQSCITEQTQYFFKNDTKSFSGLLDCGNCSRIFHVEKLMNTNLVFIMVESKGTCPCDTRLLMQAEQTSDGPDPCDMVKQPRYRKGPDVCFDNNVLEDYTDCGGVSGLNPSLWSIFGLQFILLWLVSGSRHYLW
Description: (§1) Evaluation of these pharmacological properties was affected by means of both in vitro and in vivo biological screens. In vitro screening included calcium activity in various smooth muscle systems such as rat dorsal aorta, portal vein, and trachea; effects on blood platelets, β-binding affinities which were determined in rat heart and lung. […] The in vivo testing included vasodilating results in the ganglion-blocked, angiotensin-II supported rat and antihypertensive screening in the spontaneous hypertensive rat (SHR) or DOCA salt rats.

β-Receptor = biological target: T2, β-Receptor (Rattus norvegicus, UniProt P18090); experiment: β-Receptor binding in animal heart tissue
T2 construct: from tissue; host or cells: rat heart
T2 sequence (P18090 whole entry): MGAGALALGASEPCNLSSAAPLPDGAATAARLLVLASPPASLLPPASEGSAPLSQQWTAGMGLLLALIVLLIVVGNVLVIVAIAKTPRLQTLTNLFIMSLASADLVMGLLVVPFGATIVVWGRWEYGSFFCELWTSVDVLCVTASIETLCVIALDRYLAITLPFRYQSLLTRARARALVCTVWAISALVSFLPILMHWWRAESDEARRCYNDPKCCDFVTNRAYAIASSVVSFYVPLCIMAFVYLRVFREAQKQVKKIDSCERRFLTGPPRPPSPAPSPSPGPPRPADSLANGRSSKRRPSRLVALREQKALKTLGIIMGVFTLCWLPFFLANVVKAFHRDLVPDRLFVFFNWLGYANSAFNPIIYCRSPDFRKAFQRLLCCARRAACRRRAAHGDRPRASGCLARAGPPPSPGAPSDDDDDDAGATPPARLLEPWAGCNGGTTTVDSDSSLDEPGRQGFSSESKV
Description: as §1

[1] = tested on: mean arterial blood pressure, ganglion-blocked, angiotensin-II supported rat; experiment: Vasodilation in the angiotensin-supported ganglion-blocked rat; format: in vivo
Description: as §1

[2] = animal heart tissue, read-out: β Binding (IC50)
[3] = Rattus norvegicus, 0.5 h, 30 minutes after dosing, read-out: Vasodilation, % reduction in mean arterial blood pressure

Row | Compound | Kb (rat dorsal aorta) | IC50 (β-Receptor; [2]) | inhibition in vivo at 1 mg/kg [1, 3] | further results
1 | COC(=O)C1=C(C)NC(C)=C(C(=O)OCCCNCC(O)COc2cccc3c2C[C@H](O)[C@H](O)C3)C1c1cccc([N+](=O)[O-])c1 (relative stereo) [Example 64] |  |  |  | Calcium (pA2) (rat dorsal aorta): 7.3
2 | COC(=O)C1=C(C)NC(C)=C(C(=O)OCC(C)(C)NCC(O)COc2ccccc2C#N)C1c1cccc([N+](=O)[O-])c1 (stereo not drawn) [Example 29] | 6.31 nM | 20 nM | 52% | 
3 | CCC1=C(C(=O)OCC(C)(C)NCC(O)COc2ccccc2C#N)C(c2cccc([N+](=O)[O-])c2)C(C(=O)OC)=C(C)N1 (stereo not drawn) [Example 30] | 3.98 nM | 200 nM | 50% | 
4 | COC(=O)C1=C(C)NC(C(C)C)=C(C(=O)OCC(C)(C)NCC(O)COc2ccccc2C#N)C1c1cccc([N+](=O)[O-])c1 (stereo not drawn) [Example 31] |  | 800 nM | 9% | 
5 | COC(=O)C1=C(C)NC(c2ccccc2)=C(C(=O)OCC(C)(C)NCC(O)COc2ccccc2C#N)C1c1cccc([N+](=O)[O-])c1 (stereo not drawn) [Example 32] |  | 300 nM |  | inhibition in vivo at 10 mg/kg ([1]; Rattus norvegicus, 0.5 h, 30 minutes after dosing, at 10 mg/kg, read-out: Vasodilation, % reduction in mean arterial blood pressure): 22%
6 | COC(=O)C1=C(C)NC(c2cccs2)=C(C(=O)OCC(C)(C)NCC(O)COc2ccccc2C#N)C1c1cccc([N+](=O)[O-])c1 (stereo not drawn) [Example 33] |  | 70 nM | 12% | 
7 | CCC1=C(C(=O)OCCNCC(O)COc2ccccc2C#N)C(c2cccc([N+](=O)[O-])c2)C(C(=O)OC)=C(C)N1 (stereo not drawn) [Example 34] | 12.6 nM | 6000 nM | 17% | 
8 | CCC1=C(C(=O)OCCCNCC(O)COc2ccccc2C#N)C(c2cccc([N+](=O)[O-])c2)C(C(=O)OC)=C(C)N1 (stereo not drawn) [Example 35] |  | 200 nM | 28% | 
9 | CCC1=C(C(=O)OCC(C)(C)NCC(O)COc2ccccc2C)C(c2cccc([N+](=O)[O-])c2)C(C(=O)OC)=C(C)N1 (stereo not drawn) [Example 37] |  |  | 58% | 
10 | CCC1=C(C(=O)OCC(C)(C)NCC(O)COc2ccccc2Br)C(c2cccc([N+](=O)[O-])c2)C(C(=O)OC)=C(C)N1 (stereo not drawn) [Example 38] |  | 180 nM | 55% | 
11 | CCC1=C(C(=O)OCC(C)(C)NCC(O)COc2ccc(CCOC)cc2)C(c2cccc([N+](=O)[O-])c2)C(C(=O)OC)=C(C)N1 (stereo not drawn) [Example 39] | 1.58 nM | 400 nM | 54% | 
12 | CCOC(=O)C1=C(C)NC(C)=C(C(=O)OCCCNCC(O)COc2ccccc2C)C1c1cccc([N+](=O)[O-])c1 (stereo not drawn) [Example 40] | 20 nM |  | 36% | 
13 | COC(=O)C1=C(C)NC(C)=C(C(=O)OCCCNCC(O)COc2cccc(C)c2)C1c1cccc([N+](=O)[O-])c1 (stereo not drawn) [Example 41] | 6.31 nM |  | 28% | 
14 | COC(=O)C1=C(C)NC(C)=C(C(=O)OCCCNCC(O)COc2ccc(F)cc2C)C1c1cccc([N+](=O)[O-])c1 (stereo not drawn) [Example 42] | 3.98 nM |  | 39% | 
15 | CCOC(=O)C1=C(C)NC(C)=C(C(=O)OCCCNCC(O)COc2ccccc2C#N)C1c1cccc([N+](=O)[O-])c1 (stereo not drawn) [Example 43] | 6.31 nM |  |  | 
16 | COC(=O)C1=C(C)NC(C)=C(C(=O)OCCCNCC(O)COc2ccccc2C)C1c1cccc([N+](=O)[O-])c1 (stereo not drawn) [Example 44, Methyl [3-[[3-(2-Methylphenoxy)-2-hydroxypropyl]-amino]propyl]1,4-Dihydro-2,6-dimethyl-4-(3-nitrophenyl)-3,5-pyridinedicarboxylate Hydrochloride] | 10 to 15.8 nM | 10 nM | 28% | 
17 | CCC1=C(C(=O)OCC(C)(C)NCC(O)COc2ccc(CC(N)=O)cc2)C(c2cccc([N+](=O)[O-])c2)C(C(=O)OC)=C(C)N1 (stereo not drawn) [Example 45, [2-[3-[4-(Aminocarbonyl)methyl]phenoxy]-2-hydroxypropyl]amino]-2,2-dimethylethyl]^3 Methyl^5 2-Ethyl-1,4-dihydro-6-methyl-4-(3-nitrophenyl)-3,5-pyridinedicarboxylate Hemihydrate] | 6.31 nM | 420 nM | 33% | 
18 | COC(=O)C1=C(C)NC(C)=C(C(=O)OCCNC(=S)NCCNCC(O)COc2ccccc2C)C1c1cccc([N+](=O)[O-])c1 (stereo not drawn) [Example 46] | 251 nM |  | 22% | 
19 | CCOC(=O)C1=C(C)NC(C)=C(C(=O)OCCc2ccc(OCC(O)CNC(C)C)cc2)C1c1cccc([N+](=O)[O-])c1 (stereo not drawn) [Example 54, Ethyl [2-[4-[3-[2-Hydroxy.(1-methylethyl)-amino]propoxy]phenyl]ethyl]1,4-Dihydro-2,6-dimethyl-4-(3-nitrophenyl)-3,5-pyridine dicarboxylate Hydrochloride Hydrate] | 12.6 nM | 100 nM | 57% | 
20 | CCOC(=O)C1=C(C)NC(C)=C(C(=O)OCCc2ccc(OCC(O)CNC(C)(C)C)cc2)C1c1cccc([N+](=O)[O-])c1 (stereo not drawn) [Example 55, Ethyl [2-[4-[3-[(1,1-dimethylethyl)amino]-2-hydroxypropoxy]phenyl]ethyl]1,4-Dihydro-2,6-dimethyl-4-(3-nitrophenyl)-3,5-pyridinedicarboxylate Hydrochloride Hemihydrate] | 12.6 nM |  |  | Lethality in vasodilation test ([1]; 1.0 mg/kg): Lethal at 1.0 mg/kg
21 | CCOC(=O)C1=C(C)NC(C)=C(C(=O)OCCCC(=O)Nc2ccc(OCC(O)CNC(C)C)cc2)C1c1cccc([N+](=O)[O-])c1 (stereo not drawn) [Example 56, Ethyl [3-[[[4-[2-Hydroxy-3-[(1-methylethyl)amino]-propoxy]phenyl]amino]carbonyl]propyl]1,4-Dihydro-2,6-dimethyl-4-(3-nitrophenyl)-3,5-pyridinedicarboxylateHydrate] | 10 nM | 620 nM |  | 
22 | CCC1=C(C(=O)OCC(C)(C)NC(=O)Cc2ccc(OCC(O)CNC(C)C)cc2)C(c2cccc([N+](=O)[O-])c2)C(C(=O)OC)=C(C)N1 (stereo not drawn) [Example 57, [2-[4-[2-Hydroxy-3-[(1-methylethyl)amino]propoxy]-phenyl]methyl]carbonyI]amino]-2,2-dimethylethyl]^3 Methyl^5 2-Ethyl-1,4-dihydro-6-methyl-4-(3-nitrophenyl)-3,5-pyridinedicarboxylate Hemihydrate] | 50.1 nM | > 1000 nM | 11% | 
23 | COC(=O)C1=C(C)NC(C)=C(C(=O)OCCCNCC(O)COc2cccc3ccccc23)C1c1cccc([N+](=O)[O-])c1 (stereo not drawn) [Example 59] |  |  |  | Calcium (pA2) (rat dorsal aorta): 7.3
24 | COC(=O)C1=C(C)NC(C)=C(C(=O)OCCCNCC(O)COc2ccccc2C(F)(F)F)C1c1cccc([N+](=O)[O-])c1 (stereo not drawn) [Example 60] |  |  |  | Calcium (pA2) (rat dorsal aorta): 7.2
25 | COC(=O)C1=C(C)NC(C)=C(C(=O)OCCCNCC(O)COc2ccccc2C2CCCCC2)C1c1cccc([N+](=O)[O-])c1 (stereo not drawn) [Example 61] |  |  |  | Calcium (pA2) (rat dorsal aorta): 7.6
26 | C=CCc1ccccc1OCC(O)CNCCCOC(=O)C1=C(C)NC(C)=C(C(=O)OC)C1c1cccc([N+](=O)[O-])c1 (stereo not drawn) [Example 62] |  |  |  | Calcium (pA2) (rat dorsal aorta): 7.4
27 | COC(=O)C1=C(C)NC(C)=C(C(=O)OCCCNCC(O)COc2cccc3c2CCCC3=O)C1c1cccc([N+](=O)[O-])c1 (stereo not drawn) [Example 63] |  |  |  | Calcium (pA2) (rat dorsal aorta): 8.8
28 | COC(=O)C1=C(C)NC(C)=C(C(=O)OC)C1c1ccccc1[N+](=O)[O-] [Nifedipine, reference compound] |  |  |  | IC50 (β-Receptor): > 1000 nM; inhibition in vivo at 0.1 mg/kg ([1]; Rattus norvegicus, 0.5 h, 30 minutes after dosing, at 0.1 mg/kg, read-out: Vasodilation, % reduction in mean arterial blood pressure): 23%
29 | CC(=O)Nc1ccc(OCC(O)CNC(C)C)cc1 (stereo not drawn) [Practolol, reference compound] |  | 1000 nM |  | 
